Data published in patent US5053215A, “NMR-assayable ligand-labelled trifluorothymidine containing composition and method for diagnosis of HSV infection” (priority 1988, dated 1991).
“Also recorded” adds a separate entry of the source.

Key:
[1] = tested on: HSV infected cells; conditions: in vitro, cited from earlier work; for Degradation of phosphorylated drug back to parent compound: HSV infected cells, Smee et al
[2] = tested on: HSV TK; conditions: cited from earlier work
[3] = tested on: HSV infected tissues; conditions: cited from earlier work
[4] = tested on: optic nerve and chiasm of rats after intraocular inoculation of HSV-1; conditions: rat, in vivo; cited from earlier work
[5] = in vivo; cited from earlier work
[6] = tested on: livers of mice infected with HSV-2; experiment: TFT (19F) concentration in mouse livers by 19F NMR spectroscopy after i.v. injection; design: species or system CBA/J mice; HSV-2 (333 strain); conditions: in vivo, iv, 100 mg/kg, 3.5 h
Protocol: (§1) ^19 F assay was carried out in a Nicolet-GE NT-300 NMR spectrometer, using standard techniques with a simple one-pulse sequence. The field was 7.05 Tesla (T) and the frequency was 282 megahertz. Depending upon the volume of the sample available, it was placed :n either a 5 mm or 12 mm diameter tube, which was usually not spun. Both whole liver and liver homogenates were placed in 2 ml of a 2:1 v/v mixture of D2 O: methanol which inactivated HSV, permitted field homogeneity to be optimized and provided field-frequency lock for time averaging. A five-second cycle time was used with a tip angle of 60°. Sweep width was 5000 Hz and 64K data points were collected. Concentration of ^19 F in a sample was evaluated by comparing the electronically integrated area of the resonance peak, after application of 10 Hz line broadening and Fourier transformation of the free induction delays using a 1280 computer, to that of standards containing 10, 50, or 100 μg/ml TFT Instrumental reproducibility of the calculated areas was checked by comparing the integral for the […] standard to that calculated from a scale setting obtained with a 100 μg/ml standard. […]
(§2) In FIG. 3, representative ^19 F NMR spectra was measured with the Nicolet GE NT-300 NMR spectrometer at a field strength of 7.05 T, using a 2:1 v/v D2 O/methanol mixture as a field-frequency lock. […]

[7] = as above; design: species or system CBA/J mice; HSV-2 (333 strain); conditions: in vivo, iv, 100 mg/kg, TFT concentration in liver homogenate by 19F NMR (FIG. 3B)
Protocol: as §1, §2

[8] = tested on: livers of mice infected with HSV-2; experiment: TFT concentration in livers of HSV-2 infected mice (with uninfected and CCl4 hepatitis controls) by HPLC after i.v. injection
Protocol: (§3) For comparison, TFT levels were measured in the livers of uninfected mice and mice with carbon tetrachloride (CCl4) induced hepatitis.
(§4) HSV-2 (333 strain) was grown and titered in Vero cells as previously described [Rand -t al, J. Med. Virol., Vol. 20, pp. 1-8 (1986).
(§5) The following strains of mice were obtained from the National Cancer Institute: Balb/c, CBA/J, A/HeN, A/J, P/N, and DBA/2N.
(§6) Carbon tetrachloride was dissolved in olive oil for injection. Trifluorothymidine was assayed by high pressure liquid chromatography (HPLC).
(§7) 4-6 week old, 18-23 gm, CBA/J mice were injected intraperitoneally (i.p.) with 1.5 ml of HSV-2 (2-4×10^6 pfu/ml). […] Three days after infection, mice were anesthetized with a 3:1 mixture of 100 mg/ml ketamine HCl:20 mg/ml Xylazine at a dose of 0.2 ml/kg. The jugular vein was surgically exposed, and mice were injected intravenously with 100 or 160 mg/kg of TFT in the appropriate volume of a 20 mg/ml solution in Phosphate Buffered Saline (PBS) pH 7.4. Mice were sacrificed at 45 minutes, 2 hours, 2.5 and 3.5 hours after I.V. injection of TFT. The livers were immediately excised and frozen at -70° C. until they could be studied. For viral titration and measurement of TFT, 1.5 ml of phosphate buffered saline pH 7.4 was mixed with 1 g of liver and the mixture homogenized (10 strokes using a Pyrex Ten Broeck tissue grinder), followed by sonication ×4 for 30 sec. in a Fisher 300 sonic dismembrator at a relative output of 0 55; 0.8 ml of the liver homogenate was mixed with an equal volume of methanol, vortexed extensively and then centrifuged at 15,000×g for 15 minutes. The supernatant was analyzed by HPLC for TFT and the results expressed per gram of liver after correction for dilution. Prior to sonication, 0.5 ml of the liver homogenate was serially diluted in serum free tissue culture media and titrated in triplicate in Vero cells as previously described [Rand et al, supra]. In some experiments the clarified supernatant that had been mixed with methanol as described above was placed in a 5 mm NMR tube and ^19 F content measured by NMR spectroscopy. In other experiments the entire liver was excised, and placed in a 12 mm NMR tube and the ^19 F directly analyzed by NMR spectroscopy.
(§8) Prior to i.p. injection of CCl4 in olive oil, 0.2 ml of blood was collected from each of a group of 5 mice. Twenty-four hours after i.p. injection of 0.1 ml/kg CCl4 in olive oil, blood was collected again, and both sets were analyzed for Alanine Amino Transferase (ALT) and Blood Urea Nitrogen (BUN). For ALT, 2 μl serum was analyzed in duplicate with a Technicon RA 1000 and for BUN 10 μl duplicate samples were analyzed with a Beckman Astra 8. Mice were sacrificed by cervical dislocation and the liver and kidney fixed in 10% formalin, stained with hematoxylin and eosin and examined histologically.
(§9) Therefore, data were analyzed by the non-parametric Mann-Whitney U test.
(§10) In FIG. 1, 1 HSV-2 infected, uninfected and CCl4 treated 4-6 week old CBA/J mice were injected via the jugular vein with 100 mg/kg TFT, and sacrificed at 45 minutes, 2 hours or 3.5 hours later. […] Most of the experiments were done on day 3 after HSV infection; day 2 after infection was not systematically studied, and is presented only for comparison.
(§11) In FIG. 2, the relationship between HSV-2 titer/g liver and TFT concentration/g liver measured by HPLC on day 3 after HSV-2 infection, 2 h (O's) and 2.5 h ( 's) following i.v. administration of TFT. Two separate experiments are shown. Data were analyzed by linear regression.

[9] = in vivo; conditions: mouse, in vivo, iv
Protocol: as §3, §4, §5, §6, §7, §8, §9, §10, §11

[10] = TFT blood levels after i.v. injection; format: in vivo, CBA/J mice
Protocol: as §6

[11] = tested on: murine hepatitis virus (MHV-A59); design: species or system CBA/J mice; MHV-A59; conditions: mouse, in vivo
Source text: Symbols used: =HSV-2; O=MHV-A 59; Δ=uninfected.

[12] = CCl4 induced hepatitis: Alanine Amino Transferase (ALT), Blood Urea Nitrogen (BUN) and histology; format: in vivo, CBA/J mice
Protocol: Preliminary experiments were then carried out to determine the average ALT levels of HSV-2 infected mice on day 3 at the time higher levels of TFT were found in the liver. […] A dose response curve of CCl4 hepatitis had shown that between 0.015-0.02 ml/kg CCl4 would lead to ALT levels of 500-5000 IU/ml blood. […]

[13] = mouse, in vivo, iv, 160 mg/kg, 2 h

For Nc1nc2c(ncn2COCCO)c(=O)[nH]1 [acyclovir], the “Degradation of phosphorylated drug back to parent compound” value [1] is given as “rapidly degraded back to acyclovir, and diffused out of the cell”, the “Intracellular accumulation in HSV infected cells” value (“Intracellular accumulation” for short) [1] is given as “intracellular accumulation; also recorded: accumulate in tissue culture; also recorded: accumulated in the form of phosphorylated intermediates” and the “Phosphorylation by HSV TK” value [2] is given as “phosphorylated by the HSV TK”. The “Selective accumulation of acyclovir in HSV infected tissues in vivo” value ([3]; Price et al) was “unable to demonstrate any selective accumulation” and the “Duration of elevated plasma levels of acyclovir” value ([3]; s.c. injection, Biron et al, "remained reasonably elevated") was no less than 2 h.

In the case of Cc1cn([C@@H]2O[C@H](CO)[C@@H](O)[C@@H]2F)c(=O)[nH]c1=O [FMAU, 2' fluoro-5-methyl-1-β-D-arabinosyluracil], the “Accumulation of FMAU in choroid plexus and cells lining the ventricular walls” value [4] is given as “non-specific accumulation” and the “Concentration of FMAU in optic nerve and chiasm” value [4] is given as “specific concentration of the drug in the optic nerve and chiasm”.

In the case of O=c1[nH]c(=O)n([C@H]2C[C@H](O)[C@@H](CO)O2)cc1C(F)(F)F [TFT, trifluorothymidine], the “Intracellular accumulation” value [1] is listed as “intracellular accumulation; also recorded: accumulate in tissue culture”, the “Phosphorylation by HSV TK” value [2] is listed as “phosphorylated by the HSV TK” and the “Blood brain barrier crossing” value [5] is listed as “crosses the blood brain barrier poorly”. The “TFT concentration in liver homogenate by 19F NMR (FIG. 3B)” value [6] was 11 μg/g liver, the concentration at 3.5 h [7] was 11000 ng/g and the “TFT levels in livers of HSV-2 infected mice, positive control in MHV experiment” value ([8]; 2 HSV-2 infected mice with titers of 10^6 pfu HSV/g liver (FIG. 4)) was “high levels of TFT in liver; also recorded: strikingly elevated levels”. For the same molecule, the “Accumulation of TFT in liver after i.p. injection” value ([8]; i.p. injection, HSV infected mice) was “impossible to demonstrate accumulation of TFT in the liver”, the “TFT levels in livers of HSV-2 infected mice vs uninfected or CCl4 treated mice” value ([8]; i.v. injection of TFT, 2 and 3.5 hours in FIG. 1 (100 mg/kg), 100 mg/kg) was “significantly higher levels of TFT in their livers at both 2 and 3.5 hours; also recorded: highly elevated levels of TFT” and the “Mean conc. of TFT in liver, infected mice” value [8, 13] was 110.1 μg/g liver. For the same molecule, the “Mean conc. of TFT in liver, uninfected mice” value [8, 13] was 14.7 μg/g liver, the “TFT levels in liver on day 2 after HSV-2 infection” value ([8]; viral titers low (10^3 /g liver)) was “higher levels of TFT could be found in the livers of HSV-2 infected mice on day 2 as well as day 3” and the concentration at 2 h ([9]; 100 mg/kg, TFT concentration in liver by HPLC, CCl4 hepatitis) was less than 1000 ng/g. For the same molecule, the concentration at 2 h ([9]; 160 mg/kg, Mean conc. of TFT in liver, infected mice) was 110000 ng/g, the concentration at 2 h ([9]; 160 mg/kg, Mean conc. of TFT in liver, uninfected mice) was 14700 ng/g and the “Blood levels of TFT at 45 minutes, difference among groups” value ([10]; 100 mg/kg i.v., HSV-2 infected, uninfected, CCl4 treated) was “essentially no difference in blood levels”. For the same molecule, the “Blood levels of TFT at 2 hours” value ([10]; i.v. injection, 2 hours, any of the groups) was “no detectable drug at 2 hours in the blood; also recorded: no measurable blood levels” and the “TFT level vs MHV titer” value [11] was “No relationship between MHV titer and TFT level”.

For Nc1nc2c(ncn2COCCO)c(=O)[nH]1 [DHPG, 9-(2-Hydroxyethyoxymethyl) guanine], the “Degradation of phosphorylated drug back to parent compound” value [1] is given as “did not hydrolyze back to the parent compound as readily” and the “Intracellular accumulation” value [1] is given as “intracellular accumulation; also recorded: accumulated in a similar manner”.

With ClC(Cl)(Cl)Cl [CCl4, carbon tetrachloride] the “ALT levels in blood after CCl4 (0.015-0.02 ml/kg), dose response curve” value ([12]; 0.015-0.02 ml/kg CCl4) was 500-5000 IU/ml blood, the “Renal function (BUN) after CCl4” value ([12]; 0.2 ml/kg i.p.) was “no significant alternation in renal function” and the “ALT levels in blood after CCl4 (0.2 ml/kg)” value ([12]; 0.2 ml/kg in olive oil i.p., a day later, typical range) was 20,000-30,000 IU/ml. The “Hepatic necrosis after CCl4” value ([12]; 0.2 ml/kg in olive oil i.p., a day later / histology) was “overwhelming hepatic necrosis; also recorded: massive”, the “ALT after CCl4 (0.02 ml/kg)” value ([12]; 24 h post treatment, 0.02 ml/kg, N = 12, after receiving 100 mg/kg TFT, Mean ± SD) was 18950 ± 7526 IU/L and the “BUN after CCl4” value ([12]; 24 h post treatment, 0.2 ml/kg i.p., N = 5, Mean ± SD, pre treatment 10.4 + 2.7) was 6.4 ± 2.3 mg/dL. For the same molecule, the “ALT after CCl4 (0.2 ml/kg)” value ([12]; 24 h post treatment, 0.2 ml/kg i.p., N = 5, Mean ± SD, pre treatment 28.2 ± 13.8) was 28112 ± 6086 IU/L and the “Hepatic necrosis after low dose CCl4, histology” value ([12]; dose printed as 0.0 ml/kg) was “more localized and less extensive”.
